# Key:
# Format in all cases: in vivo
# [1] = test system: pigweed (Amaranthus retroflexus); assay: Test A postemergence; conditions: Amaranthus retroflexus, post-emergence, 240 h, Postemergence, read-out: Pigweed plant response rating (0 to 100 scale); for pest or weed control at 125 g/ha: 125 g ai/ha, visual rating about 10 d after treatment; for pest or weed control at 31 g/ha: 31 g ai/ha, 0 is no effect, 100 is complete control
# Procedure, shortened: (§1)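 In a loam soil and sand blend, planted seeds got a preemergence directed soil spray, and young plants at the one- to two-leaf stage, 2–10 cm high, got a postemergence application; ~10 d greenhouse hold; injury rated visually, 0 = none, 100 = complete control.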
# [2] = test system: barnyardgrass (Echinochloa crus-galli); assay: Test A postemergence; conditions: Echinochloa crus-galli, post-emergence, 240 h, Postemergence; for pest or weed control at 125 g/ha: 125 g ai/ha, visual rating about 10 d after treatment, read-out: Barnyardgrass plant response rating (0 to 100 scale, 0 no effect, 100 complete control); for pest or weed control at 31 g/ha: 31 g ai/ha, 0 is no effect, 100 is complete control, read-out: Barnyardgrass plant response rating (0 to 100 scale)
# Procedure, shortened: as §1
# [3] = test system: Galium (catchweed bedstraw, Galium aparine); assay: Test A postemergence; conditions: Galium, post-emergence, 240 h, Postemergence, read-out: Galium plant response rating (0 to 100 scale); for pest or weed control at 125 g/ha: 125 g ai/ha, visual rating about 10 d after treatment; for pest or weed control at 31 g/ha: 31 g ai/ha, 0 is no effect, 100 is complete control
# Procedure, shortened: as §1
# [4] = test system: ragweed (common ragweed, Ambrosia elatior); assay: Test A postemergence; conditions: Ambrosia artemisiifolia, post-emergence, 240 h, Postemergence, read-out: Ragweed plant response rating (0 to 100 scale); for pest or weed control at 125 g/ha: 125 g ai/ha, visual rating about 10 d after treatment; for pest or weed control at 31 g/ha: 31 g ai/ha, 0 is no effect, 100 is complete control
# Procedure, shortened: as §1
# [5] = test system: ryegrass, Italian (Italian ryegrass, Lolium multiflorum); assay: Test A postemergence; conditions: Lolium multiflorum, post-emergence, 240 h, Postemergence, read-out: Ryegrass, Italian plant response rating (0 to 100 scale); for pest or weed control at 125 g/ha: 125 g ai/ha, visual rating about 10 d after treatment; for pest or weed control at 31 g/ha: 31 g ai/ha, 0 is no effect, 100 is complete control
# Procedure, shortened: as §1
# [6] = test system: wheat (Triticum aestivum); assay: Test A postemergence; conditions: Triticum aestivum, post-emergence, 240 h, Postemergence, read-out: Wheat plant response rating (0 to 100 scale); for plant injury at 125 g/ha: 125 g ai/ha, visual rating about 10 d after treatment; for plant injury at 31 g/ha: 31 g ai/ha, 0 is no effect, 100 is complete control
# Procedure, shortened: as §1
# [7] = test system: giant foxtail (Setaria faberii); assay: Test A postemergence; conditions: Setaria faberi, post-emergence, 240 h, Postemergence, read-out: Foxtail, Giant plant response rating (0 to 100 scale); for pest or weed control at 125 g/ha: 125 g ai/ha, visual rating about 10 d after treatment; for pest or weed control at 31 g/ha: 31 g ai/ha, 0 is no effect, 100 is complete control
# Procedure, shortened: as §1
# [8] = test system: corn (Zea mays); assay: Test A postemergence; conditions: Zea mays, post-emergence, 240 h, Postemergence, read-out: Corn plant response rating (0 to 100 scale); for plant injury at 125 g/ha: 125 g ai/ha, visual rating about 10 d after treatment; for plant injury at 31 g/ha: 31 g ai/ha, 0 is no effect, 100 is complete control
# Procedure, shortened: as §1
# [9] = test system: blackgrass (Alopecurus myosuroides); assay: Test A postemergence; conditions: Alopecurus myosuroides, post-emergence, 240 h, Postemergence, read-out: Blackgrass plant response rating (0 to 100 scale); for pest or weed control at 125 g/ha: 125 g ai/ha, visual rating about 10 d after treatment; for pest or weed control at 31 g/ha: 31 g ai/ha, 0 is no effect, 100 is complete control
# Procedure, shortened: as §1
# [10] = test system: Kochia (Kochia scoparia); assay: Test A postemergence; conditions: Bassia scoparia, post-emergence, 240 h, Postemergence, read-out: Kochia plant response rating (0 to 100 scale); for pest or weed control at 125 g/ha: 125 g ai/ha, visual rating about 10 d after treatment; for pest or weed control at 31 g/ha: 31 g ai/ha, 0 is no effect, 100 is complete control
# Procedure, shortened: as §1
# [11] = test system: pigweed (Amaranthus retroflexus); assay: Test A preemergence; conditions: Amaranthus retroflexus, pre-emergence, 240 h, 0 to 100 scale where 0 is no effect and 100 is complete control, read-out: Pigweed plant response rating; for pest or weed control at 31 g/ha: 31 g ai/ha, Preemergence; for pest or weed control at 125 g/ha: 125 g ai/ha, preemergence, visual injury rating, approximately 10 d
# [12] = test system: barnyardgrass (Echinochloa crus-galli); assay: Test A preemergence; conditions: Echinochloa crus-galli, pre-emergence, 240 h, 0 to 100 scale where 0 is no effect and 100 is complete control, read-out: Barnyardgrass plant response rating; for pest or weed control at 31 g/ha: 31 g ai/ha, Preemergence; for pest or weed control at 125 g/ha: 125 g ai/ha, preemergence, visual injury rating, approximately 10 d
# Procedure, shortened: as §1
# [13] = test system: ragweed (common ragweed, Ambrosia elatior); assay: Test A preemergence; conditions: Ambrosia artemisiifolia, pre-emergence, 240 h, 0 to 100 scale where 0 is no effect and 100 is complete control, read-out: Ragweed plant response rating; for pest or weed control at 31 g/ha: 31 g ai/ha, Preemergence; for pest or weed control at 125 g/ha: 125 g ai/ha, preemergence, visual injury rating, approximately 10 d
# Procedure, shortened: as §1
# [14] = test system: ryegrass, Italian (Italian ryegrass, Lolium multiflorum); assay: Test A preemergence; conditions: Lolium multiflorum, pre-emergence, 240 h, 0 to 100 scale where 0 is no effect and 100 is complete control, read-out: Ryegrass, Italian plant response rating; for pest or weed control at 31 g/ha: 31 g ai/ha, Preemergence; for pest or weed control at 125 g/ha: 125 g ai/ha, preemergence, visual injury rating, approximately 10 d
# Procedure, shortened: as §1
# [15] = test system: giant foxtail (Setaria faberii); assay: Test A preemergence; conditions: Setaria faberi, pre-emergence, 240 h, 0 to 100 scale where 0 is no effect and 100 is complete control, read-out: Foxtail, Giant plant response rating; for pest or weed control at 31 g/ha: 31 g ai/ha, Preemergence; for pest or weed control at 125 g/ha: 125 g ai/ha, preemergence, visual injury rating, approximately 10 d
# Procedure, shortened: as §1
# [16] = test system: Kochia (Kochia scoparia); assay: Test A preemergence; conditions: Bassia scoparia, pre-emergence, 240 h, 0 to 100 scale where 0 is no effect and 100 is complete control, read-out: Kochia plant response rating; for pest or weed control at 31 g/ha: 31 g ai/ha, Preemergence; for pest or weed control at 125 g/ha: 125 g ai/ha, preemergence, visual injury rating, approximately 10 d
# Procedure, shortened: as §1
# [17] = test system: barnyardgrass (Echinochloa crus-galli); assay: Test B flooded paddy test; conditions: Echinochloa crus-galli, 250 g ai/ha, Flood; 0 to 100 scale where 0 is no effect and 100 is complete control; read-out: Barnyardgrass plant response rating
# Procedure, shortened: (§2)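 Greenhouse paddy pots with 2-leaf stage plants received compound by direct addition to floodwater 3 cm deep, kept at that level. Scored visually at 13–15 d versus controls (0 no effect; 100 complete control).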
# [18] = test system: sedge, umbrella (small-flower umbrella sedge, Cyperus difformis); assay: Test B flooded paddy test; conditions: Cyperus difformis, 250 g ai/ha, Flood; 0 to 100 scale where 0 is no effect and 100 is complete control; read-out: Sedge, Umbrella plant response rating
# Procedure, shortened: as §2
# [19] = test system: ducksalad (Heteranthera limosa); assay: Test B flooded paddy test; conditions: Heteranthera limosa, 250 g ai/ha, Flood; 0 to 100 scale where 0 is no effect and 100 is complete control; read-out: Ducksalad plant response rating
# Procedure, shortened: as §2
# [20] = test system: rice (Oryra sativa); assay: Test B flooded paddy test; conditions: Oryza sativa, 250 g ai/ha, Flood; 0 to 100 scale where 0 is no effect and 100 is complete control; read-out: Rice plant response rating
# Procedure, shortened: as §2
SMILES,pest or weed control at 125 g/ha [1] [%],pest or weed control at 31 g/ha [1] [%],pest or weed control at 125 g/ha [2] [%],pest or weed control at 31 g/ha [2] [%],pest or weed control at 125 g/ha [3] [%],pest or weed control at 31 g/ha [3] [%],pest or weed control at 125 g/ha [4] [%],pest or weed control at 31 g/ha [4] [%],pest or weed control at 125 g/ha [5] [%],pest or weed control at 31 g/ha [5] [%],plant injury at 125 g/ha [6] [%],plant injury at 31 g/ha [6] [%],pest or weed control at 125 g/ha [7] [%],pest or weed control at 31 g/ha [7] [%],plant injury at 125 g/ha [8] [%],plant injury at 31 g/ha [8] [%],pest or weed control at 125 g/ha [9] [%],pest or weed control at 31 g/ha [9] [%],pest or weed control at 125 g/ha [10] [%],pest or weed control at 31 g/ha [10] [%],other results
O=C(Nc1ccccc1F)[C@H]1C(=O)N(CC(F)F)C[C@@H]1c1cccc(C(F)(F)F)c1 [Compound 1295],0,0,0,0,0,0,0,0,0,0,0,0,0,0,0,0,0,0,0,0,pest or weed control at 31 g/ha [11]: 0%; pest or weed control at 125 g/ha [11]: 0%; pest or weed control at 31 g/ha [12]: 0%; pest or weed control at 125 g/ha [12]: 0%; pest or weed control at 31 g/ha [13]: 0%; pest or weed control at 125 g/ha [13]: 0%; pest or weed control at 31 g/ha [14]: 0%; pest or weed control at 125 g/ha [14]: 0%; pest or weed control at 31 g/ha [15]: 0%; pest or weed control at 125 g/ha [15]: 40%; pest or weed control at 31 g/ha [16]: 0%; pest or weed control at 125 g/ha [16]: 0%; pest or weed control at 250 g/ha [17]: 0%; pest or weed control at 250 g/ha [18]: 0%; pest or weed control at 250 g/ha [19]: 0%; pest or weed control at 250 g/ha [20]: 0%
CN1C[C@H](c2cccc(C#N)c2)[C@@H](C(=O)Nc2ccc(F)c(F)c2F)C1=O [Compound 1287],0,0,90,80,40,30,0,0,0,0,0,0,80,70,0,0,20,0,30,0,pest or weed control at 31 g/ha [11]: 0%; pest or weed control at 125 g/ha [11]: 40%; pest or weed control at 31 g/ha [12]: 90%; pest or weed control at 125 g/ha [12]: 100%; pest or weed control at 31 g/ha [13]: 0%; pest or weed control at 125 g/ha [13]: 0%; pest or weed control at 31 g/ha [14]: 0%; pest or weed control at 125 g/ha [14]: 40%; pest or weed control at 31 g/ha [15]: 100%; pest or weed control at 125 g/ha [15]: 100%; pest or weed control at 31 g/ha [16]: 20%; pest or weed control at 125 g/ha [16]: 70%; pest or weed control at 250 g/ha [17]: 75%; pest or weed control at 250 g/ha [18]: 0%; pest or weed control at 250 g/ha [19]: 80%; pest or weed control at 250 g/ha [20]: 15%
